Test results from US7166598B2, “Piperazine derivatives” (Astellas Pharma Inc., priority 1998, dated 2007).

melting point | Structure (SMILES)
70 to 90 °C | COC[C@@H]1CN(CCN2CCN(C(=O)c3cc(OC)cc(C(F)(F)F)c3)[C@H](Cc3ccc(Cl)cc3)C2)CCO1.Cl.Cl
130 to 137.3 °C | Cl.Cl.O=C(c1cc(C(F)(F)F)cc(C(F)(F)F)c1)N1CCN(Cc2cccnc2)C[C@H]1Cc1ccc(F)cc1
152 to 162 °C | COc1cc(C[C@@H]2CN(CCN3CCOC(C)(C)C3)CCN2C(=O)c2cc(C(F)(F)F)cc(C(F)(F)F)c2)ccc1F.Cl.Cl
146 to 149 °C | COC[C@@H]1CN(CCN2CCN(C(=O)c3cc(C(F)(F)F)cc(C(F)(F)F)c3)[C@H](Cc3ccc(OC)cc3)C2)CCO1.Cl.Cl
90 to 120 °C | Cc1ccc(C[C@@H]2CN(CCc3cccnc3)CCN2C(=O)c2cc(C(F)(F)F)cc(C(F)(F)F)c2)cc1O.Cl.Cl
180 to 184 °C | CC1(C)COCCN1CC#CCN1CCN(C(=O)c2cc(C(F)(F)F)cc(C(F)(F)F)c2)[C@H](Cc2ccc(F)c(O)c2)C1.Cl.Cl
138.4 to 142.5 °C | CSc1cc(C(=O)N2CCN(CCN3C[C@@H](C)O[C@@H](C)C3)C[C@H]2Cc2ccc(Cl)cc2)cc(C(F)(F)F)c1.Cl.Cl
169 to 178 °C | CSc1cc(C(=O)N2CCN(CCN3CCc4ncccc4C3)C[C@H]2Cc2ccc(Cl)c(O)c2)cc(C(F)(F)F)c1.Cl.Cl.Cl
160 to 180 °C | Cc1ccc(C[C@@H]2CN(Cc3cnn(C)c3)CCN2C(=O)c2cc(C(F)(F)F)cc(C(F)(F)F)c2)cc1O.Cl
173 to 183 °C | COc1cc(C(=O)N2CCN(CCN3CCc4ncccc4C3)C[C@H]2Cc2ccc3ccccc3c2)cc(C(F)(F)F)c1.Cl.Cl.Cl
205 to 215 °C | Cc1ccc(C[C@@H]2CN(Cc3csc(N)n3)CCN2C(=O)c2cc(C(F)(F)F)cc(C(F)(F)F)c2)cc1O.Cl.Cl
181 to 188 °C | COc1cc(C(=O)N2CCN(CC#CCN3CCOCC3(C)C)C[C@H]2Cc2ccc(C)c(O)c2)cc(C(F)(F)F)c1.Cl.Cl
190 to 210 °C | CSc1cc(C(=O)N2CCN(CCN3CCc4ncccc4C3)C[C@H]2Cc2ccc(C(F)(F)F)cc2)cc(C(F)(F)F)c1.Cl.Cl
209.6 to 213.7 °C | C[C@@H]1CN(CCN2CCN(C(=O)c3cc(C(F)(F)F)cc(S(=O)(=O)N(C)C)c3)[C@H](Cc3ccc(Cl)cc3)C2)C[C@H](C)O1.Cl.Cl
130 to 140 °C | COc1cc(C(=O)N2CCN(CCN3CCC(F)(F)CC3)C[C@H]2Cc2c[nH]c3ccccc23)cc(C(F)(F)F)c1.Cl.Cl
132 to 135 °C | COC[C@@H]1CN(CCN2CCN(C(=O)c3cc(SC)cc(C(F)(F)F)c3)[C@H](Cc3ccc(F)c(OC)c3)C2)CCO1.Cl.Cl
163 to 176 °C | COC[C@@H]1CN(CCN2CCN(C(=O)c3cc(C(F)(F)F)cc(C(F)(F)F)c3)[C@H](Cc3ccc(C)c(NCN4C(=O)CCC4O)c3)C2)CCO1.Cl.Cl.Cl (stereo partly shown)
173 to 176 °C | COC[C@@H]1CN(CCN2CCN(C(=O)c3cc(F)cc(C(F)(F)F)c3)[C@H](Cc3ccc(C(F)(F)F)cc3)C2)CCO1.Cl.Cl
192 to 197 °C | CS(=O)(=O)c1cc(C(=O)N2CCN(CCN3CCc4ncccc4C3)C[C@H]2Cc2ccc(C(F)(F)F)cc2)cc(C(F)(F)F)c1.Cl.Cl.Cl
199 to 245 °C | CNc1cc(C(=O)N2CCN(CCN3CCc4ncccc4C3)C[C@H]2Cc2ccc(Cl)cc2)cc(C(F)(F)F)c1.Cl.Cl.Cl
135 to 145 °C | COc1cc(C(=O)N2CCN(CCCc3cccnc3)C[C@H]2Cc2c[nH]c3ccccc23)cc(C(F)(F)F)c1.Cl.Cl

melting point | Structure (SMILES)
50 to 60 °C | Cl.Cl.O=C(c1cc(C(F)(F)F)cc(C(F)(F)F)c1)N1CCN(Cc2cccnc2)C[C@H]1Cc1ccc(F)c(O)c1
170 to 195 °C | C[C@@H]1CN(CCN2CCN(C(=O)c3cc(C(F)(F)F)cc(C(F)(F)F)c3)[C@H](Cc3ccc(F)c(O)c3)C2)C[C@H](C)O1.Cl.Cl
223 to 228 °C | C[C@@H]1CN(CCN2CCN(C(=O)c3cc(C(F)(F)F)cc(C(F)(F)F)c3)[C@H](Cc3ccc(F)c(F)c3)C2)C[C@H](C)O1.Cl.Cl
140 to 150 °C | COc1cc(C(=O)N2CCN(Cc3cnn(C)c3)C[C@H]2Cc2ccc(Cl)c(O)c2)cc(C(F)(F)F)c1.Cl
232 to 250 °C | Cl.Cl.O=C(c1cc(C(F)(F)F)cc(C(F)(F)F)c1)N1CCN(CCN2CC3CCC(C2)O3)C[C@H]1Cc1ccc(C(F)(F)F)cc1
64 to 74 °C | Cl.Cl.O=C(c1cc(C(F)(F)F)cc(C(F)(F)F)c1)N1CCN(CCCc2cccnc2)C[C@H]1Cc1ccc(C(F)(F)F)cc1
148.7 to 152.3 °C | COc1cc(C(=O)N2CCN(CCN3CCc4ncccc4C3)C[C@H]2Cc2ccc(F)cc2)cc(C(F)(F)F)c1.Cl.Cl.Cl
140 to 164 °C | COC[C@@H]1CN(CCN2CCN(C(=O)c3cc(C(F)(F)F)cc(C(F)(F)F)c3)[C@H](Cc3ccc(F)c(OC)c3)C2)[C@@H](C)CO1.Cl.Cl
140 to 146 °C | COC[C@@H]1CN(CCN2CCN(C(=O)c3cc(SC)cc(C(F)(F)F)c3)[C@H](Cc3ccc(Cl)cc3)C2)CCO1.Cl.Cl
221 to 224 °C | Cl.Cl.O=C(c1cc(C(F)(F)F)cc(C(F)(F)F)c1)N1CCN(CCN2CCC[C@H]2CO)C[C@H]1Cc1ccc(C(F)(F)F)cc1
199 to 204 °C | COC[C@@H]1CN(CCN2CCN(C(=O)c3cc(F)cc(C(F)(F)F)c3)[C@H](Cc3ccc(Cl)cc3)C2)CCO1.Cl.Cl
188 to 193 °C | COc1cc(C(=O)N2CCN(CCN3C[C@@H](C)O[C@@H](C)C3)C[C@H]2Cc2ccc3ccccc3c2)cc(C(F)(F)F)c1.Cl.Cl
188 to 194 °C | COC[C@H]1CN(CCN2CCN(C(=O)c3cc(C(F)(F)F)cc(C(F)(F)F)c3)[C@H](Cc3ccc(C(F)(F)F)cc3)C2)CCO1.Cl.Cl
90 to 110 °C | COc1cc(C(=O)N2CCN(CCCc3cccnc3)C[C@H]2Cc2ccc(Cl)c(O)c2)cc(C(F)(F)F)c1.Cl.Cl
180 to 190 °C | COc1cc(C(=O)N2CCN(CCN3CCc4ncccc4C3)C[C@H]2Cc2c[nH]c3ccccc23)cc(C(F)(F)F)c1.Cl.Cl.Cl
153.5 to 160 °C | COC[C@@H]1CN(CCN2CCN(C(=O)c3cc(C(F)(F)F)cc(S(=O)(=O)N(C)C)c3)[C@H](Cc3ccc(C)c(O)c3)C2)CCO1.Cl.Cl
150 to 170 °C | COC[C@@H]1CN(CCN2CCN(C(=O)c3cc(C(F)(F)F)cc(C(F)(F)F)c3)[C@H](Cc3ccc(C)c(N4CCOCC4)c3)C2)CCO1.Cl.Cl.Cl
60 to 80 °C | Cc1ccc(CC2CN(C/C=C/c3cccnc3)CCN2C(=O)c2cc(C(F)(F)F)cc(C(F)(F)F)c2)cc1O.Cl.Cl (stereo not shown)
189 to 194 °C | Cl.Cl.Cl.O=C(c1cc(C(F)(F)F)cc(C(F)(F)F)c1)N1CCN(CCN2CCc3ncccc3C2)C[C@H]1Cc1ccc2ccccc2c1
130.6 to 135.7 °C | Cl.Cl.Cl.O=C(c1cc(Cl)cc(C(F)(F)F)c1)N1CCN(CCN2CCc3ncccc3C2)C[C@H]1Cc1ccc(Cl)cc1
250 to 255 °C | Cl.Cl.O=C(c1cc(C(F)(F)F)cc(C(F)(F)F)c1)N1CCN(CCN2CCC(F)(F)CC2)C[C@H]1Cc1ccc(Cl)cc1

melting point | Structure (SMILES)
225.6 to 228.4 °C | COc1cc(C(=O)N2CCN(Cc3cnn(C)c3)C[C@H]2Cc2ccc(F)cc2)cc(C(F)(F)F)c1.Cl
145 to 148 °C | COC[C@@H]1CN(CCN2CCN(C(=O)c3cc(C(F)(F)F)cc(C(F)(F)F)c3)[C@H](Cc3ccc4ccccc4c3)C2)CCO1.Cl.Cl
162 to 168 °C | COc1cc(C(=O)N2CCN(Cc3cccnc3)C[C@H]2Cc2ccc3ccccc3c2)cc(C(F)(F)F)c1.Cl.Cl
133.3 to 136.2 °C | C[C@@H]1CN(CCN2CCN(C(=O)c3cc([N+](=O)[O-])cc(C(F)(F)F)c3)[C@H](Cc3ccc(Cl)cc3)C2)C[C@H](C)O1.Cl.Cl
110 to 130 °C | Cc1ccc(C[C@@H]2CN(Cc3cccnc3)CCN2C(=O)c2cc(C(F)(F)F)cc(C(F)(F)F)c2)cc1O.Cl.Cl
95 to 105 °C | COC[C@@H]1C[C@@H](OC)CN1CCN1CCN(C(=O)c2cc(C(F)(F)F)cc(C(F)(F)F)c2)[C@H](Cc2ccc(Cl)c(O)c2)C1.Cl.Cl
184 to 191 °C | Cl.Cl.Cl.O=C(c1cc(-n2cccc2)cc(C(F)(F)F)c1)N1CCN(CCN2CCc3ncccc3C2)C[C@H]1Cc1ccc(Cl)cc1
168 to 173 °C | COC[C@@H]1CN(CCN2CCN(C(=O)c3cc(Cl)cc(C(F)(F)F)c3)[C@H](Cc3ccc(C(F)(F)F)cc3)C2)CCO1.Cl.Cl
147 to 151 °C | COC[C@H]1CCC[C@@H](COC)N1CCN1CCN(C(=O)c2cc(C(F)(F)F)cc(C(F)(F)F)c2)[C@H](Cc2ccc(C(F)(F)F)cc2)C1.Cl.Cl
80 to 95 °C | Cl.Cl.O=C(c1cc(C(F)(F)F)cc(C(F)(F)F)c1)N1CCN(CCCc2cccnc2)C[C@H]1Cc1ccc(F)c(O)c1
157 to 160 °C | COC[C@@H]1C[C@H](COC)CN(CCN2CCN(C(=O)c3cc(C(F)(F)F)cc(C(F)(F)F)c3)[C@H](Cc3ccc(C(F)(F)F)cc3)C2)C1.Cl.Cl
160 to 170 °C | COc1cc(C[C@@H]2CN(CCN3C[C@@H](C)O[C@@H](C)C3)CCN2C(=O)c2cc(C(F)(F)F)cc(C(F)(F)F)c2)ccc1C(F)(F)F.Cl.Cl
110 to 130 °C | COC[C@@H]1CN(CC#CCN2CCN(C(=O)c3cc(C(F)(F)F)cc(C(F)(F)F)c3)[C@H](Cc3ccc(C)c(O)c3)C2)CCO1.Cl.Cl
215 to 231 °C | CC1(C)CN(CCN2CCN(C(=O)c3cc(C(F)(F)F)cc(C(F)(F)F)c3)[C@H](Cc3ccc(C(F)(F)F)cc3)C2)CCO1.Cl.Cl
210 to 220 °C | Cc1ccc(C[C@@H]2CN(CCN3[C@H](C)COC[C@@H]3C)CCN2C(=O)c2cc(C(F)(F)F)cc(C(F)(F)F)c2)cc1O.Cl.Cl
210 to 220 °C | COc1cc(C(=O)N2CCN(Cc3cnn(C)c3)C[C@H]2Cc2c[nH]c3ccccc23)cc(C(F)(F)F)c1.Cl
176 to 178 °C | COC[C@@H]1CN(CCN2CCN(C(=O)c3cc(F)cc(C(F)(F)F)c3)[C@H](Cc3ccc(Cl)c(O)c3)C2)CCO1.Cl.Cl
182 to 195 °C | CSc1cc(C(=O)N2CCN(CCN3CCc4ncccc4C3)C[C@H]2Cc2ccc(Cl)cc2)cc(C(F)(F)F)c1.Cl.Cl.Cl
135 to 140 °C | COC[C@@H]1CN(CCN2CCN(C(=O)c3cc(OC)cc(C(F)(F)F)c3)[C@H](Cc3ccc(C(F)(F)F)c(OC)c3)C2)CCO1.Cl.Cl
